Experiments:
Assay in all cases: KINOMEscan competition binding
Conditions in all cases: compound 10.0 µM
ACVR2B (human) = ACVR2B (human) (UniProt Q13705)
IRAK1 (human) = IRAK1 (human) (UniProt P51617)
NUAK1 (human) = NUAK1 (human) (UniProt O60285)
ERBB3 (human) = ERBB3 (human) (UniProt P21860)
CSNK1A1L (human) = CSNK1A1L (human) (UniProt Q8N752)
WEE1 (human) = WEE1 (human) (UniProt P30291)
INSRR (human) = INSRR (human) (UniProt P14616)
MAPK4 (human) = MAPK4 (human) (UniProt P31152)
RPS6KA6 KD1 (human) = RPS6KA6 KD1 (human) (UniProt Q9UK32)
CDKL2 (human) = CDKL2 (human) (UniProt Q92772)
DAPK2 (human) = DAPK2 (human) (UniProt Q9UIK4)
PRKACB (human) = PRKACB (human) (UniProt P22694)
STK32B (human) = STK32B (human) (UniProt Q9NY57)
MAP2K1 (human) = MAP2K1 (human) (UniProt Q02750)
TLK1 (human) = TLK1 (human) (UniProt Q9UKI8)
TLK1 (human), sequence (Q9UKI8 whole entry, looked up): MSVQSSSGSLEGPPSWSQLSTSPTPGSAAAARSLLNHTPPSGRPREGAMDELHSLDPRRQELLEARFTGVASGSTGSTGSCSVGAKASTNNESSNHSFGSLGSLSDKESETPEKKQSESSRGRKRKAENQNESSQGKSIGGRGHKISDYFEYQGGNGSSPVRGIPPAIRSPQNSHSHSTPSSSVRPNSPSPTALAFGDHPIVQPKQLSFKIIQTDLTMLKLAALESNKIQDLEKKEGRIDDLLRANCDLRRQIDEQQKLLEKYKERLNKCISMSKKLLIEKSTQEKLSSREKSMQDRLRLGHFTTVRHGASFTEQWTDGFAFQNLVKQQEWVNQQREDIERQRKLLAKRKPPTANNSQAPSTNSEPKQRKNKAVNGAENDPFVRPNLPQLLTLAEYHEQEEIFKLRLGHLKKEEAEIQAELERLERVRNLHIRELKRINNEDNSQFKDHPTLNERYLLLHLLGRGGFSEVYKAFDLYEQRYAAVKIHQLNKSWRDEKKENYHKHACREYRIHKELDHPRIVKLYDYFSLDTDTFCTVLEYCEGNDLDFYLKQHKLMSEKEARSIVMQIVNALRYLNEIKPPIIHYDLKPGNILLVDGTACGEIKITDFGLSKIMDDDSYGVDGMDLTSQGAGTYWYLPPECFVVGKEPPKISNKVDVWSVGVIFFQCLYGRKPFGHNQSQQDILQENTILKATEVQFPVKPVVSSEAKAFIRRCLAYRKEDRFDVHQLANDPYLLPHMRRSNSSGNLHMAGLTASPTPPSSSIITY

MAP3K3 (human) = MAP3K3 (human) (UniProt Q99759)
EPHB6 (human) = EPHB6 (human) (UniProt O15197)
EPHB6 (human), sequence (O15197 whole entry, looked up): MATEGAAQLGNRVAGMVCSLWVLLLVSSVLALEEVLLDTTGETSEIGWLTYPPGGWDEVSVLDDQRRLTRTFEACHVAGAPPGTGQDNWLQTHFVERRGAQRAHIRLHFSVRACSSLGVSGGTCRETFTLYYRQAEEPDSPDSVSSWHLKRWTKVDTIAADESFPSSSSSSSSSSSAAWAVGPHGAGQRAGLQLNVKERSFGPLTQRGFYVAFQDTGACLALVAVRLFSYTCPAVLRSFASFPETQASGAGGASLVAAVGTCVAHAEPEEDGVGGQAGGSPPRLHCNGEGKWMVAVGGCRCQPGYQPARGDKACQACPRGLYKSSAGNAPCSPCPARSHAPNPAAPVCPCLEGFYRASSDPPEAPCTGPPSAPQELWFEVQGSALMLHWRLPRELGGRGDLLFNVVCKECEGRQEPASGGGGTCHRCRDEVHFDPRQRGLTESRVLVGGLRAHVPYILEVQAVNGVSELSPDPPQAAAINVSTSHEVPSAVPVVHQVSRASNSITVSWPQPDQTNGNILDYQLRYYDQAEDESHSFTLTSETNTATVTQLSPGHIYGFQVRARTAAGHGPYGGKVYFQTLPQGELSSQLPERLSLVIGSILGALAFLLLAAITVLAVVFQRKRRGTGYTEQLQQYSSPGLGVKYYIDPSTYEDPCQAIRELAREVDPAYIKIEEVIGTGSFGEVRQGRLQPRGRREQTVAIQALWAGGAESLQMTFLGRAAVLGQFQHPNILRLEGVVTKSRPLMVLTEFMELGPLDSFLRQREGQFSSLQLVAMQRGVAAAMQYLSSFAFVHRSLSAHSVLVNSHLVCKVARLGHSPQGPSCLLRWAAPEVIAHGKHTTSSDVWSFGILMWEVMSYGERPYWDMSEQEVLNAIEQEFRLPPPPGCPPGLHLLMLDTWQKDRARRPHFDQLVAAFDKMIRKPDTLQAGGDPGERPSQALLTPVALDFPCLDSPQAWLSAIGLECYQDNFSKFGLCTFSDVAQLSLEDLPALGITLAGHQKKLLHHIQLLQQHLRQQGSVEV

EPHA3 (human) = EPHA3 (human) (UniProt P29320)
PRKG2 (human) = PRKG2 (human) (UniProt Q13237)
CLK2 (human) = CLK2 (human) (UniProt P49760)
ALK (human) = ALK (human) (UniProt Q9UM73)
CLK4 (human) = CLK4 (human) (UniProt Q9HAZ1)
PKN1 (human) = PKN1 (human) (UniProt Q16512)
TNK1 (human) = TNK1 (human) (UniProt Q13470)
FER (human) = FER (human) (UniProt P16591)
PRKAA2 (human) = PRKAA2 (human) (UniProt P54646)
PRKG1 (human) = PRKG1 (human) (UniProt Q13976)
MAPK13 (human) = MAPK13 (human) (UniProt O15264)
MAP3K4 (human) = MAP3K4 (human) (UniProt Q9Y6R4)
TEK (human) = TEK (human) (UniProt Q02763)
FLT3 (human) = FLT3 (human) (UniProt P36888)
DCLK3 (human) = DCLK3 (human) (UniProt Q9C098)
DCLK3 (human), sequence (Q9C098 whole entry, looked up): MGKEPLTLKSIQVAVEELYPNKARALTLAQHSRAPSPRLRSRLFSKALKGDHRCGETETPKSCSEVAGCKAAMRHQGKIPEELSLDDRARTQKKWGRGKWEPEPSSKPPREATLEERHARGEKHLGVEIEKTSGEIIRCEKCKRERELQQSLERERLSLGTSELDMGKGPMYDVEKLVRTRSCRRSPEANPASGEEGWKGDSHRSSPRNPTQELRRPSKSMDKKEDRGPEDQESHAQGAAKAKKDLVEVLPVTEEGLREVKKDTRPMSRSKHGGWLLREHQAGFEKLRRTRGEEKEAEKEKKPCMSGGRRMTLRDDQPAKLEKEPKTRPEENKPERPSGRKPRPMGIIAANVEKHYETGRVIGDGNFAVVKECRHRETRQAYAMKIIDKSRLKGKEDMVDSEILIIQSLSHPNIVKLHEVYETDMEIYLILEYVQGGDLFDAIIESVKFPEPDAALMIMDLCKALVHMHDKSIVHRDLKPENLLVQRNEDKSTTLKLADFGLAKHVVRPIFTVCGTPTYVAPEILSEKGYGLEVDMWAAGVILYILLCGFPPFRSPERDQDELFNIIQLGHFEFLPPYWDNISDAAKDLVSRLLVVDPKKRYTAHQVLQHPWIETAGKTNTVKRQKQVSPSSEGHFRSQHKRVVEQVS

MAPK15 (human) = MAPK15 (human) (UniProt Q8TD08)
MAPK15 (human), sequence (Q8TD08 whole entry, looked up): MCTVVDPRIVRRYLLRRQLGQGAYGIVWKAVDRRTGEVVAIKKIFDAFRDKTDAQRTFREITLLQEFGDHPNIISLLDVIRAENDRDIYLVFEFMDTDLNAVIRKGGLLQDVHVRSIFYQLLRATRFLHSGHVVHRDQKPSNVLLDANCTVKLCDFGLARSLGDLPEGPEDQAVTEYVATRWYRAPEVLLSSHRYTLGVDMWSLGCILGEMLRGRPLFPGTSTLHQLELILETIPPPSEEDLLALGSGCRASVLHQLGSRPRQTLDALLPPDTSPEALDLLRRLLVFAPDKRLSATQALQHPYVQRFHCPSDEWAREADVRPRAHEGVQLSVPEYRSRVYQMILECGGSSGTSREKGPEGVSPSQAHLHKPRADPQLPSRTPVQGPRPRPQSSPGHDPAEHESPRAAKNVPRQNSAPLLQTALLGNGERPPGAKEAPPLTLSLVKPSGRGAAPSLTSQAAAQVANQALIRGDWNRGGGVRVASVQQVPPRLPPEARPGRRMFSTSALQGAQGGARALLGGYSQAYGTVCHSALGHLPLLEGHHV

IKBKE (human) = IKBKE (human) (UniProt Q14164)
ROS1 (human) = ROS1 (human) (UniProt P08922)
PHKG1 (human) = PHKG1 (human) (UniProt Q16816)
STK38L (human) = STK38L (human) (UniProt Q9Y2H1)
STK38L (human), sequence (Q9Y2H1 whole entry, looked up): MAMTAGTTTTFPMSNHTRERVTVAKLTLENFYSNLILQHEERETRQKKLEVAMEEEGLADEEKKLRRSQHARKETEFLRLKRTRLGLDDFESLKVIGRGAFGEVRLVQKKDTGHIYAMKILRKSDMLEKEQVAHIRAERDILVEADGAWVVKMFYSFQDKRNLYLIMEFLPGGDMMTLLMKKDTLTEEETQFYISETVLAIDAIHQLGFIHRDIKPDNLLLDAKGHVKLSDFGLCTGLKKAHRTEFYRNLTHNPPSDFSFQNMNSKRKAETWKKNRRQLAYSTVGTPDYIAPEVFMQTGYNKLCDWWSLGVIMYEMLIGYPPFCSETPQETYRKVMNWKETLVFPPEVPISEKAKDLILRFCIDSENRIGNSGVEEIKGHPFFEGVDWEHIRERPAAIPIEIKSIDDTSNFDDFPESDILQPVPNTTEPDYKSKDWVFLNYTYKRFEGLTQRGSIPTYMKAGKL

EPHA2 (human) = EPHA2 (human) (UniProt P29317)

IRAK1 (human), sequence (P51617 whole entry, looked up): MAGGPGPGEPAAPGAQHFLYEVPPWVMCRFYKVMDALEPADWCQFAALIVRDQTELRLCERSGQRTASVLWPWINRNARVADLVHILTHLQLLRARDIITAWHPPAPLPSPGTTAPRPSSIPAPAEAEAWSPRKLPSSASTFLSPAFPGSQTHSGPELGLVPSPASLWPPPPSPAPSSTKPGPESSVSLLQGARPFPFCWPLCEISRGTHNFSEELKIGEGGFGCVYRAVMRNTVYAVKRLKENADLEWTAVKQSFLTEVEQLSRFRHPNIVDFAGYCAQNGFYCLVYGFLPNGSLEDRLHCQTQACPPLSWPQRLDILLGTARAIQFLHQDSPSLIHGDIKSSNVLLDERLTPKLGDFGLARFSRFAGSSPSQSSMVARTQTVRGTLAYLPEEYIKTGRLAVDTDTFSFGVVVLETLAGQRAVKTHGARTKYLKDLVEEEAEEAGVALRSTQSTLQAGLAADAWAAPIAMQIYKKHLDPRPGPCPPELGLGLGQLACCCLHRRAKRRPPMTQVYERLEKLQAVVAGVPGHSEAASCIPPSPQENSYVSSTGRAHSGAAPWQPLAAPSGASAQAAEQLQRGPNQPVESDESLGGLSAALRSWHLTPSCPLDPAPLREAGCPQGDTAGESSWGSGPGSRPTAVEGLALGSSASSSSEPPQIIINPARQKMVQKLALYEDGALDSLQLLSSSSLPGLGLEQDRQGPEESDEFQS
MAPK4 (human), sequence (P31152 whole entry, looked up): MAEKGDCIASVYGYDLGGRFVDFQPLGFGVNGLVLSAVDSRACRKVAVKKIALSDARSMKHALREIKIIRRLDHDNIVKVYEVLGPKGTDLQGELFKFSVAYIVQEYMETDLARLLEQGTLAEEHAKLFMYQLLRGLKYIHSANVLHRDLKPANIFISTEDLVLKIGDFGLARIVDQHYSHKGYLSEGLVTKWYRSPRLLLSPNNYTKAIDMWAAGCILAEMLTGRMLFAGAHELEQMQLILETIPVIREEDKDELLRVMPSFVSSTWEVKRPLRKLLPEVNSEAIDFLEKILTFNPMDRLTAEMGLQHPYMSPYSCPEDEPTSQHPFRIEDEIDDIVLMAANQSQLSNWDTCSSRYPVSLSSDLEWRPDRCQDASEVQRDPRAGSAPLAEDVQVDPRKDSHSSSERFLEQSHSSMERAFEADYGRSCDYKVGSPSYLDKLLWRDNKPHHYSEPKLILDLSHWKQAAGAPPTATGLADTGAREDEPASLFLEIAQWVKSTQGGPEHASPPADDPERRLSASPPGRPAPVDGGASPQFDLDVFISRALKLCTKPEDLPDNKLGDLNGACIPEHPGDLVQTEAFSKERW

`Cc1cn(-c2cc(C(=O)Nc3ccc(C)c(NC(=O)c4ccno4)c3)cc(C(F)(F)F)c2)cn1` showed a kinase still bound, per cent of control (ACVR2B (human)) of 100%, a kinase still bound, per cent of control (IRAK1 (human)) of 100% and a kinase still bound, per cent of control (NUAK1 (human)) of 100%. The kinase still bound, per cent of control (ERBB3 (human)) was 100%, the kinase still bound, per cent of control (CSNK1A1L (human)) was 100% and the kinase still bound, per cent of control (WEE1 (human)) was 100%. It also gave a kinase still bound, per cent of control (INSRR (human)) of 100%, a kinase still bound, per cent of control (MAPK4 (human)) of 100% and a kinase still bound, per cent of control (RPS6KA6 KD1 (human)) of 100%. The kinase still bound, per cent of control (CDKL2 (human)) was 100%, the kinase still bound, per cent of control (DAPK2 (human)) was 100% and the kinase still bound, per cent of control (PRKACB (human)) was 100%. The kinase still bound, per cent of control (STK32B (human)) was 100%, the kinase still bound, per cent of control (MAP2K1 (human)) was 100% and the kinase still bound, per cent of control (TLK1 (human)) was 100%. The kinase still bound, per cent of control (MAP3K3 (human)) was 100%, the kinase still bound, per cent of control (EPHB6 (human)) was 100% and the kinase still bound, per cent of control (EPHA3 (human)) was 9.5%. The kinase still bound, per cent of control (PRKG2 (human)) was 100%, the kinase still bound, per cent of control (CLK2 (human)) was 100% and the kinase still bound, per cent of control (ALK (human)) was 100%. The kinase still bound, per cent of control (CLK4 (human)) was 100%, the kinase still bound, per cent of control (PKN1 (human)) was 100% and the kinase still bound, per cent of control (TNK1 (human)) was 100%. It also gave a kinase still bound, per cent of control (FER (human)) of 100%, a kinase still bound, per cent of control (PRKAA2 (human)) of 100% and a kinase still bound, per cent of control (PRKG1 (human)) of 100%. For the same compound, the kinase still bound, per cent of control (MAPK13 (human)) was 100%, the kinase still bound, per cent of control (MAP3K4 (human)) was 100% and the kinase still bound, per cent of control (TEK (human)) was 100%. It also gave a kinase still bound, per cent of control (FLT3 (human)) of 100%, a kinase still bound, per cent of control (DCLK3 (human)) of 100% and a kinase still bound, per cent of control (MAPK15 (human)) of 100%. It also gave a kinase still bound, per cent of control (IKBKE (human)) of 100%, a kinase still bound, per cent of control (ROS1 (human)) of 100% and a kinase still bound, per cent of control (PHKG1 (human)) of 100%. For the same compound, the kinase still bound, per cent of control (STK38L (human)) was 100% and the kinase still bound, per cent of control (EPHA2 (human)) was 1.6%.
